Assay results as given in paper PMC12300381, “Synthesis, Biological Evaluation, and In Silico Characterization of Novel Imidazothiadiazole–Chalcone Hybrids as Multi-Target Enzyme Inhibitors” (Pharmaceuticals, 2025).

Key:
Type in all cases: biochemical
Conditions in all cases: for IC50: Table 2
hCA I = hCA I (Homo sapiens, UniProt P00915); assay: hCA I esterase activity inhibition (Verpoorte method, p-nitrophenylacetate)
Description: (§1) The activities of the CA isoenzymes were measured in accordance with Verpoorte et al.’s previously described methodology. […] There was 400 µL of Tris–HCl buffer (pH 7.4), 360 µL of PNA (3.0 mM), 220 µL of H2O, and 20 µL of purified hCA isoenzyme in the reaction mixture. The identical cuvette was prepared without the enzyme in order to obtain a control measurement. The standard protein was bovine serum albumin.
(§2) To determine the IC50 values of the tested compounds, enzyme activity measurements were conducted at five to six different inhibitor concentrations. Percent activity values were calculated for each dose, taking into account the compounds’ molecular weights and dilution factors.
(§3) The IC50 study was completed prior to the Kᵢ determination. For the Kᵢ analysis, three selected concentrations of each inhibitor were used alongside a control (uninhibited) reaction.
(§4) Kᵢ values and standard deviations were calculated based on the type of inhibition (competitive or non-competitive), as inferred from the intersection pattern of the Lineweaver–Burk lines. These kinetic parameters allowed for further insight into the binding affinities and inhibition mechanisms of the compounds.

BChE = target: T1, BChE (Equus caballus, UniProt P81908); assay: biochemical
T1 construct: BChE (C1057-1KU), extracted from equine serum; purchased Sigma-Aldrich Chemie, St. Louis, MO, USA C1057-1KU; host or cells: equine serum
T1 sequence (P81908 whole entry): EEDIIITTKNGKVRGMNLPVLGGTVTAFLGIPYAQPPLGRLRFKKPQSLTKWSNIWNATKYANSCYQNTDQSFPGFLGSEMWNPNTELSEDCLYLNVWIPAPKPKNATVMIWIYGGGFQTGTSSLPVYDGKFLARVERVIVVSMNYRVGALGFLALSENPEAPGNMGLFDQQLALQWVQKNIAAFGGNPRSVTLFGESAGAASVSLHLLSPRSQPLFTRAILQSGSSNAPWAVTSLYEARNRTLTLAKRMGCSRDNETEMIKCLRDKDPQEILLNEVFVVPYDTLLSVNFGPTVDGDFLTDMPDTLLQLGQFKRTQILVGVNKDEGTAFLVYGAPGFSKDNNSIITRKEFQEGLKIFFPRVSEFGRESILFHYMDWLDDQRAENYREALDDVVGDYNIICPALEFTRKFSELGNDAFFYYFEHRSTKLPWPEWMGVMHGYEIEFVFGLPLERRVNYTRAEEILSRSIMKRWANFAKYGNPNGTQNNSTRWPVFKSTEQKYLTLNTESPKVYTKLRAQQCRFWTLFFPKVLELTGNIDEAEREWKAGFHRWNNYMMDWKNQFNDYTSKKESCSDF
Description: (§5) The previously published Ellman’s technique was used to measure the BChE and AChE activities. AChE (C2888-500UN) from Electrophorus electricus and BChE (C1057-1KU), extracted from equine serum, were both obtained from Sigma-Aldrich Chemie, St. Louis, MO, USA. The BChE/AChE activities were measured using 5,5′-dithiobis(2-nitrobenzoic acid) (DTNB) and butyrylthiocholine iodide (BChI)/[…] (AChI). In short, […] of the sample solutions with varying concentrations was dissolved in deionized water along with 100 µL of buffer (Tris–HCl, 1.0 M, pH 8.0). […] A fraction of DTNB (50 µL, 0.5 mM) was added following incubation. Finally, 50 µL of BChI/AChI (10/10 mM) was added to initiate the reaction. […] All enzymatic activity determination solutions, except AChE/BChE, were included in the negative control.
as §2, §3, §4

AChE = target: T2, AChE (Electrophorus electricus, UniProt O42275); assay: biochemical
T2 construct: purchased Sigma-Aldrich Chemie, St. Louis, MO, USA C2888-500UN
T2 sequence (O42275 24-633): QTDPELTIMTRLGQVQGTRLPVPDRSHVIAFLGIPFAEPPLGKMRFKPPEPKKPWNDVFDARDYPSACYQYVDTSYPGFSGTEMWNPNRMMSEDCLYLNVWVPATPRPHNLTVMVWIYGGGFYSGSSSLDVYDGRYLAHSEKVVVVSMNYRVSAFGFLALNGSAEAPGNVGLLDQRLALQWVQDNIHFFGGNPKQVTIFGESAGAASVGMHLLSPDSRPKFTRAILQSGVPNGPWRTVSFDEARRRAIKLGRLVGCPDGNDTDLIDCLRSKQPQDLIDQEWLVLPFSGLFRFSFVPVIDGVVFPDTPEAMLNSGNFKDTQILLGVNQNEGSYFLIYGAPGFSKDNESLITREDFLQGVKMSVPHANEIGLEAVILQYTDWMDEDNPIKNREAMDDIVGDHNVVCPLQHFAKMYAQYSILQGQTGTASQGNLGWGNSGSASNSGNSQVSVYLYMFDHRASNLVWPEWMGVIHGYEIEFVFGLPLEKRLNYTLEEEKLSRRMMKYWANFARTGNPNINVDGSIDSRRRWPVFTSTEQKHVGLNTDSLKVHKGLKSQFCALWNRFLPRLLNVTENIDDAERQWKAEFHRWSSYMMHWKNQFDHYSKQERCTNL
Description: as §5, §2, §3, §4

hCA II = hCA II (Homo sapiens, UniProt P00918); assay: hCA II esterase activity inhibition (Verpoorte method, p-nitrophenylacetate)
Description: as §1, §2
The IC50 study was completed prior to the Kᵢ determination. For the Kᵢ analysis, three selected concentrations of each inhibitor were used alongside a control (uninhibited) reaction. Enzyme activity data were converted to 1/V values and plotted against 1/[S] to generate Lineweaver–Burk plots.
as §4

Sequence of hCA I (P00915 whole entry): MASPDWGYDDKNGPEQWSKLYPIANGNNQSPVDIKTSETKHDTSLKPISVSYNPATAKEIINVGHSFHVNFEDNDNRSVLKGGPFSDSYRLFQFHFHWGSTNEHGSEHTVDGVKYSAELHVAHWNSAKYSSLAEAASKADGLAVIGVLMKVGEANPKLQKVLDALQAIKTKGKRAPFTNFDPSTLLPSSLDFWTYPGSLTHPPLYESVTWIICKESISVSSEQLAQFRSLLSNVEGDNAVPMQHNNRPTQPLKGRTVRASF

| SMILES | Ki (hCA I; Lineweaver-Burk plots) | inhibition type, hCA I (hCA I; Lineweaver-Burk plots) | IC50 (hCA I) | Ki (BChE; Lineweaver-Burk plots) | IC50 (BChE) | Ki (AChE; Lineweaver-Burk plots) | IC50 (AChE) | Ki (hCA II; Lineweaver-Burk plots) | IC50 (hCA II) | inhibition type, BChE (BChE; Lineweaver-Burk plots) | inhibition type, AChE (AChE; Lineweaver-Burk plots) | inhibition type, hCA II (hCA II; Lineweaver-Burk plots) |
| --- | --- | --- | --- | --- | --- | --- | --- | --- | --- | --- | --- | --- |
| O=C(/C=C/c1c(-c2ccccc2)nc2sc(SCc3ccc(F)cc3)nn12)c1ccc(Cl)cc1 [8d, (E)-1-(4-Chlorophenyl)-3-(2-((4-fluorobenzyl)thio)-6-phenylimidazo[2,1-b][1,3,4]thiadiazol-5-yl)prop-2-en-1-one] | 45.1 ± 3.91 nM | non-competitive | 39.1 nM | 1.78 ± 0.12 nM | 1.98 nM | 7.98 ± 0.6 nM | 9.3 nM | 39.6 ± 4.91 nM | 34.1 nM |  |  |  |
| COc1ccc(C(=O)/C=C/c2c(-c3ccccc3)nc3sc(SCc4ccccc4)nn23)cc1 [8a, (E)-3-(2-(Benzylthio)-6-phenylimidazo[2,1-b][1,3,4]thiadiazol-5-yl)-1-(4-methoxyphenyl)prop-2-en-1-one] | 81.2 ± 4.36 nM |  | 73 nM | 1.01 ± 0.08 nM | 1.37 nM | 3.86 ± 0.2 nM | 4.36 nM | 49.3 ± 5.03 nM | 41.1 nM | competitive | competitive |  |
| O=C(/C=C/c1c(-c2ccccc2)nc2sc(SCc3ccccc3)nn12)c1ccc(Cl)cc1 [8b, (E)-3-(2-(Benzylthio)-6-phenylimidazo[2,1-b][1,3,4]thiadiazol-5-yl)-1-(4-chlorophenyl)prop-2-en-1-one] | 78 ± 5.48 nM |  | 64.4 nM | 1.7 ± 0.1 nM | 1.95 nM | 6.01 ± 0.35 nM | 6.77 nM | 52.5 ± 6.24 nM | 49.3 nM |  |  |  |
| COc1ccc(C(=O)/C=C/c2c(-c3ccccc3)nc3sc(SCc4ccc(F)cc4)nn23)cc1 [8c, (E)-3-(2-((4-Fluorobenzyl)thio)-6-phenylimidazo[2,1-b][1,3,4]thiadiazol-5-yl)-1-(4-methoxyphenyl)prop-2-en-1-one] |  |  |  | 1.56 ± 0.06 nM | 2.03 nM | 11.3 ± 1.02 nM | 13 nM | 36.1 ± 5.36 nM | 30.2 nM |  |  | non-competitive |
